Data: patent US9849141B2, “Use of spironolactone-based composition that exhibits an inhibitory action on T-lymphocyte activation which is useful for preventing and/or treating multiple sclerosis” (PONTIFICIA UNIVERSIDAD CATOLICA DE CHILE, priority 2010, dated 2017)

Experiments:
[1] = system: dendritic cells / CD4+ T-cells; settings: cited from earlier work
[2] = system: CD8+ or CD4+ T-lymphocytes co-cultured with antigen-presenting cells (dendritic cells); assay: T-lymphocyte activation by ovalbumin-pulsed antigen-presenting cells, IL-2 ELISA; format: cell-based, transgenic mice; settings: 5 ug/ml during co-culture, 24 hrs, antigen-presenting cells pulsed with 10 ug/ml ovalbumin (FIG. 2)
Protocol: FIG. 2. Plots showing the effect of a composition comprising spironolactone in the inhibition of activation of T-lymphocytes through antigen-presenting cells. Antigen-presenting cells (dendritic cells) were pulsed with ovalbumin, washed and co-cultured with CD8+ or CD4+T-lymphocytes obtained from transgenic mice whose TCR specifically recognizes an ovalbumin derived peptide charged on class I or II MHC respectively. At the same time, the culture was treated with spironolactone (-□-) eplerenone (-▾-) or not treated (control -▴-) and after 24 hours, the supernatant was withdrawn and the presence of interleukin-2 (IL-2) assayed using ELISA. *p<0.05 one-way ANOVA.
Antigen-presenting cells were pulsed with 10 ug/ml of ovalbumin (OVA) protein over 24 hrs, washed and then co-cultured with CD8+ or CD4+T-lymphocytes obtained from transgenic mice whose TCR recognizes specifically a ovalbumin derived peptide charged in MHC class I or II, respectively. […] After 24 hrs, the supernatant was withdrawn and IL-2 secretion, a cytokine secreted by activated T-lymphocytes, was assayed using ELISA assay. In this specific immunological test, it is expected the activation of said T-lymphocytes and, therefore, an increase in IL-2 secretion.

[3] = system: systemic lupus erythematosus-like disease in FcγII receptor knockout mice; assay: Effect of spironolactone in systemic lupus erythematosus mice; format: in vivo; settings: pellets supplemented with 1.8 mg daily, oral, compared to regularly fed mice (FIG. 5)
[4] = system: immune synapsis between T-lymphocytes and antigen-presenting cells; assay: Immune synapsis between antigen-presenting cells and T-lymphocytes, Golgi polarization by confocal fluorescence microscopy; format: cell-based; settings: 5 ug/ml in culture medium, co-culture 2 hrs (FIG. 4B)
Source text: FIG. 4: Photographs using confocal fluorescence microscopy, showing immunological synapsis between antigen-presenting dendritic cells and T-lymphocyte. T-lymphocytes were dyed with BODIPY FL C5-Ceramide, which is directed to the Golgi apparatus, while antigen-presenting cells were dyed with CMTMR-Orange and co-cultured without spironolactone (FIG. 4A) or in the presence of spironolactone (FIG. 4B) during 2 hrs, afterwards, the cells were observed under a confocal fluorescence microscope.
It has been determined that an efficient activation of T-lymphocytes requires an stable interaction between the antigen-presenting cell and the T-lymphocyte, which is known as “immune synapsis”. A stable immune synapsis is translated in a polarization of the Golgi apparatus, an organelle in charge of protein transport, of the T-lymphocyte towards the contacting site with the antigen-presenting cell. In this way, it is possible to observe an efficient immune synapsis checking if a polarization from Golgi apparatus towards the contacting site with the antigen-presenting cell exists or not. […] Afterwards, both cell groups were contacted and the interaction between cells using a confocal fluorescence microscope was observed. […]

[5] = system: experimental autoimmune encefalomyelitis (EAE) induced with MOG 35-55 peptide; assay: Effect of a spironolactone composition in EAE mice (clinical score); format: in vivo, C57BL/6 female mice; settings: EAE induced C57BL/6 mice, pellets supplemented with daily dose of 1.8 mg per mouse, oral, vs control group on standard pellets (FIG. 1)
[6] = system: experimental autoimmune encefalomyelitis (EAE); settings: administration to EAE mice; for MR inhibitors also in mice that did not receive aldosterone; cited from earlier work
[7] = system: purified CD8+ T-lymphocytes; assay: T-lymphocyte activation by plate-bound anti-CD3ε independent of antigen-presenting cells, IL-2 ELISA; format: cell-based; settings: 5 ug/ml, 24 hrs, plate activated with different concentrations of anti-CD3ε (FIG. 3)
Protocol: FIG. 3: Plots showing the effect of a composition comprising spironolactone or epleronone in the activation of T-lymphocytes independent from antigen-presenting dendritic cells. An ELISA plate was activated with different concentrations of anti-CD3ε overnight, and then purified CD8+ T-lymphocytes were added and treated for 24 hrs with spironolactone (-□-), eplerenone (-▾-) o not treated (control -▴-). When the time was completed the supernatant was extracted and the IL-2 levels were determined using ELISA.
The following experiment was made in order to determine if spironolactone acts directly on T-lymphocytes or the effect is on the function of antigen-presenting cells. An ELISA plate was activated with different concentrations of anti-CD3ε overnight, and then, purified CD8+T-lymphocytes were added and treated with either spironolactone or epleronone (5 ug/ml) during 24 hrs. After that period, the supernatant was withdrawn and IL-2 levels were determined using ELISA. This assay is based on that T-lymphocytes, beside expressing TCR, express a protein denominated CD3, which transduces the activating signal, generated by the interaction of TCR with the antigenic peptide bound to the MHC of the antigen-presenting cell, to the interior of the T-lymphocyte.

Row | SMILES | suppression of activator effects of aldosterone in the function of dendritic cells [1] | activation of T-lymphocytes (IL-2 secretion, ELISA) [2] | deposition of immune complexes in the kidney [3] | immune synapsis (polarization of the Golgi apparatus of the T-lymphocyte towards the antigen-presenting cell) [4] | clinical score associated with the disease [5] | effect on disease in EAE mice [6] | secretion of IL-2 (ELISA) [7] | induction of T helper 17 (Th17) phenotype in CD4+ T-cells by stimulated dendritic cells ([1]; dendritic cells stimulated with aldosterone)
1 | COC(=O)[C@@H]1CC2=CC(=O)CC[C@]2(C)[C@@]23O[C@@H]2C[C@@]2(C)[C@@H](CC[C@@]24CCC(=O)O4)[C@H]13 [epleronone] | could be suppressed | no such inhibiting effect on the activation of T-lymphocytes is observed |  |  |  |  |  | 
2 | CC(=O)S[C@@H]1CC2=CC(=O)CC[C@]2(C)[C@H]2CC[C@@]3(C)[C@@H](CC[C@@]34CCC(=O)O4)[C@H]12 [spironolactone] | could be suppressed | inhibits the activation of T-lymphocytes | did not observe a decrease in the deposition of immune complexes in the kidney | immune synapsis is not produced | significantly reduces the clinical score | only spironolactone had protecting effects | same inhibiting effect on the secretion of IL-2 | 
3 | C[C@]12CCC(=O)C=C1CC[C@@H]1[C@@H]2[C@@H](O)C[C@]2(C=O)[C@@H](C(=O)CO)CC[C@@H]12 [aldosterone] |  |  |  |  |  | showed a deterioration in their disease |  | induce the T helper 17 (Th17) phenotype in CD4+ T-cells
